In test [1] the target is T1, LOXL2 (Homo sapiens, UniProt Q9Y4K0).
T1 sequence (Q9Y4K0 26-774): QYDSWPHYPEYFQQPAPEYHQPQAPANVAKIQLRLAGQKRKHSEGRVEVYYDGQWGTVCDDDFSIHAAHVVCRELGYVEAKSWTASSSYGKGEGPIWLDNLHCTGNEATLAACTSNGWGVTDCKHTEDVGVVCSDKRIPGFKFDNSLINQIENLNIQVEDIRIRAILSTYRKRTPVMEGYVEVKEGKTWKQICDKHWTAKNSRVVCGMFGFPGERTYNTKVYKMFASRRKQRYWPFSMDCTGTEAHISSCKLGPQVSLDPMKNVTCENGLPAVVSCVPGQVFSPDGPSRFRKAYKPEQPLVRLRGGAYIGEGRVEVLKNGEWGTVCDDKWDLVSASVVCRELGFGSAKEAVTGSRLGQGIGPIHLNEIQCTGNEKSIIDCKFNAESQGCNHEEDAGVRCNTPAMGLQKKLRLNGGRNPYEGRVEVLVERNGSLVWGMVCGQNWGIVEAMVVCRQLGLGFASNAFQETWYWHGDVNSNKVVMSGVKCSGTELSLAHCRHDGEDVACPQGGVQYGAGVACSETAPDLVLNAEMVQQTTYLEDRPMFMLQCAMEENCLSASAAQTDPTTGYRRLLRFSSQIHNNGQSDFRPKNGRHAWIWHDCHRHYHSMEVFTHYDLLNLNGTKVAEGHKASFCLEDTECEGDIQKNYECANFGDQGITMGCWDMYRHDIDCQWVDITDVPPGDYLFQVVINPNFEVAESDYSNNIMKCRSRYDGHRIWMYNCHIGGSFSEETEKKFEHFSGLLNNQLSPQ
Nature of the test: LOXL2 inhibition, Amplex Red oxidation assay. The test is classed as biochemical. Here is the method: LOX and LOXL protein family members can be acquired as recombinant active proteins from commercial sources, or extracted from animal tissues like bovine aorta, tendons, pig skin; or prepared from cell cultures. The inhibitory effects of the compounds of the present invention were tested against the given LOX or LOXL preparation using a method based on the detection of hydrogen peroxide with an Amplex Red oxidation assay [Zhou et al, 1997]. The assay was developed using either 384 or 96 well format. Briefly, in a standard black, clear bottom 384 well plate assay 25 µL of a dilution of any of the isoenzymes and orthologues in 1.2 M urea, 50 mM sodium borate buffer (pH 8.2) were added into each well in the presence of […] and 0.5 mM pargyline (to inhibit SSAO and MAO-B and MAO-A, respectively; not necessary if the enzyme is from a recombinant or purified form). […] of a reaction mixture containing twice the KM concentration of putrescine (Sigma Aldrich, e.g. 20 mM for LOX and LOXL1 or 10 mM for LOXL2 and 4 mM for LOXL3 and LOXL4), 120 µM Amplex Red (Thermo Fisher Scientific) and 1.5 U/mL horseradish peroxidase (Sigma Aldrich) prepared in 1.2 M urea, 50 mM sodium borate buffer (pH 8.2) were then added to the corresponding wells. The above volumes were doubled in the case of 96 wells plate. The fluorescence (RFU) was read every 2.5 min for 30 min at 37 °C, excitation 544 nm and emission 590 (Optima; BMG labtech). The slope/min of the kinetics for each well was calculated using MARS data analysis software (BMG labtech) and this value was used to deduce the IC50 value (Dotmatics). The ability of the inventive compounds to inhibit the amine oxidase activity of LOX and other family members is shown in Table 5.

The target in test [2] is T1, LOXL2. Kind of test: Jump dilution experiment, sustained inhibition of LOXL2. The format is biochemical. The settings on record: for LOXL2 enzyme activity recovery: at 21-30 min after jump dilution, 10×IC50, 40 min preincubation at 37 °C; for Sustained inhibition of LOXL2: jump dilution, 21-30 min. Here is the method:
Jump Dilution experiment: The assay was developed using a 96 well format and the starting enzyme concentration was set 100 times higher than for the inhibition studies. The enzyme was incubated for 40 minutes at 37 °C in presence of 10×IC50 concentrations of the test inhibitor. After the incubation, the mixture was diluted 50x in assay buffer, followed by a further 2× dilution in Amplex Red-horseradish peroxidase-putrescine reaction mix (as for Example 2) prior to the fluorescence measurement. Results were expressed in % recovery of the signal at 21-30 min by comparison with non-inhibited controls. LOXL1 is used as a surrogate for LOX owing to similar pharmacological behaviour.

[3] abbreviates: 30 min incubation with enzyme at 37 °C, read-out: Human recombinant LOXL2 Activity IC50.

The term IC50 denotes the point on the concentration scale where inhibition reaches its midpoint.

Read-outs that look alike come from different tables or passages of the source.

Turning to `N#CCCN` [BAPN, β-aminopropionitrile, reference compound], the IC50 at LOXL2 [1] (setting [3]) came out at 400 nM. Besides, on LOXL2 [2], the “LOXL2 enzyme activity recovery” value came out at 11.2% and the “Sustained inhibition of LOXL2” value is reported as “sustained inhibition”.
As to `NC/C(=C\F)CS(=O)(=O)c1ccccc1` [Compound 1, (E)-3-fluoro-2-((phenylsulfonyl)methyl)prop-2-en-1-amine], at LOXL2 [1] (setting [3]), the half-maximal inhibitory concentration (IC50) was found to be 4800 nM. The IC50 on LOXL2 [1] (2 h incubation with enzyme at 37 °C, read-out: Human LOXL2 Activity IC50) was less than 2000 nM. Also, on LOXL2 [2], the “LOXL2 enzyme activity recovery” value came to 2.5% and the “Sustained inhibition of LOXL2” value was “sustained inhibition”.

The values above are taken from patent US20260364030A1, “NOVEL SELECTIVE INHIBITORS OF LYSYL OXIDASES” (Syntara Limited, priority 2022, published 2026).
